Where a name gives a salt, the structure may show the parent alone.
Legend:
Format in all cases: in vivo
[1] = tested on: human gastric cancer (SGC-7901) transplanted tumor; experiment: Zebrafish human gastric cancer (SGC-7901) transplanted tumor model; conditions: SGC-7901, 50 μM, 2 days at 35° C., n = 10
Source text: Human gastric cancer (SGC-7901) cells were labeled with a red fluorescent dye (CM-Dil), and transplanted into zebrafish yolk sacs by microinjection, with about 200 cells being transplanted per zebrafish, so as to establish a zebrafish human gastric cancer transplanted tumor model.
(§1) Human gastric cancer (SGC-7901) cells were labeled with CM-Dil, and transplanted into 2 dpf wild type AB strain zebrafish yolk sacs by microinjection, with about 200 cells being transplanted per zebrafish, so as to establish a zebrafish human gastric cancer (SGC-7901) transplanted model; and the zebrafishes injected with the SGC-7901 cells were fed at 35° C. until 3 dpf.
(§2) Zebrafishes with better consistence in transplanted tumor cells were picked out under a microscope, randomly assigned to a 6-well plate, and were given in a water-dissolving administration manner respectively with the samples at concentrations respectively of 28, 83 and 250 μg/mL and the positive control drug cis-platinum at a concentration of 50 μM; and meanwhile a model control group was set, where there were 30 zebrafishes per well (concentration group), and the volume of each well was 5 mL. The zebrafishes in each experiment (concentration) group were continually cultured at 35° C., and after 2 days, 10 zebrafishes were randomly selected from each experiment (concentration) group to observe under a fluorescence microscope, and photographs of the 10 zebrafishes were taken and saved; and the photographs were analyzed using Nikon NIS-Elements D 3.10 Advanced image processing software to calculate the fluorescence intensities of cancer cells. The inhibitory effects of samples on the zebrafish gastric cancer (SGC-7901) transplanted tumor were respectively evaluated with the fluorescence intensities, and the tumor inhibition effect was calculated using the following equation. […]

[2] = tested on: human lung adenocarcinoma (A549) transplanted tumor; experiment: Zebrafish human lung adenocarcinoma (A549) transplanted tumor model; conditions: A549, 50 μM, 2 days at 35° C., n = 10
Source text: Human lung adenocarcinoma (A549) cells were labeled with a red fluorescent dye (CM-Dil), and transplanted into zebrafish yolk sacs by microinjection, with about 200 cells being transplanted per zebrafish, so as to establish a zebrafish human lung adenocarcinoma transplanted tumor model.
as §1, with “lung adenocarcinoma (A549)” for “gastric cancer (SGC-7901)”, “A549” for “SGC-7901”
as §2, with “inhibitory effect” for “inhibitory effects”, “of the sample” for “of samples”, “zebrafish lung adenocarcinoma (A549)” for “zebrafish gastric cancer (SGC-7901)”, “tumor was” for “tumor were respectively”

[3] = tested on: human lymphatic cancer (Ramos) transplanted tumor; experiment: Zebrafish human lymphatic cancer (Ramos) transplanted tumor model; conditions: 2 days at 35° C.; for Pixel of Sum of Fluorescence Intensities (mean ± SE): 5 μM
Source text: Human lymphatic cancer (Ramos) cells were labeled with a red fluorescent dye (CM-Dil), and transplanted into zebrafish yolk sacs by microinjection, with about 200 cells being transplanted per zebrafish, so as to establish a zebrafish human lymphatic cancer transplanted tumor model.
Human lymphatic cancer (Ramos) cells were labeled with CM-Dil, and transplanted into 2 dpf wild type AB strain zebrafish yolk sacs by microinjection, with about 200 cells being transplanted per zebrafish, so as to establish a zebrafish human lymphatic cancer transplanted model; and the zebrafishes injected with the human lymphatic cancer cells were fed at 35° C. until 3 dpf.
Zebrafishes with better consistence in transplanted tumor cells were picked out under a microscope, randomly assigned to a 6-well plate, and were given in a water-dissolving administration manner respectively with the samples at concentrations respectively of 28, 83 and 250 μg/mL and the positive control drug vincristine at a concentration of 5 μM; and meanwhile a model control group was set, where there were 30 zebrafishes per well (concentration group), and the volume of each well was 5 mL. The zebrafishes in each experiment group were continually cultured at 35° C., and after 2 days, 10 zebrafishes were randomly selected from each experiment group to observe under a fluorescence microscope, and photographs of the 10 zebrafishes were taken and saved; and the photographs were analyzed using Nikon NIS-Elements D 3.10 Advanced image processing software to calculate the fluorescence intensities of cancer cells. The inhibitory effect of the sample on the zebrafish lymphatic cancer (Ramos) transplanted tumor was evaluated with the fluorescence intensities, and the tumor inhibition effect was calculated using the following equation.
A concentration-effect curve was drawn according to a growth inhibition effect on the transplanted tumor; statistical analysis was performed by variance analysis and Dunnett's T-test, where p<0.05 was considered as a significant difference; such that a representative experimental map was provided.

| Structure (SMILES) | Inhibition Effect [1] | Pixel of Sum of Fluorescence Intensities (mean ± SE) [1] | Pixel of Sum of Fluorescence Intensities (mean ± SE) ([1]; listed as cis-platinum) | Inhibition Effect [2] | Pixel of Sum of Fluorescence Intensities (mean ± SE) [2] | Pixel of Sum of Fluorescence Intensities (mean ± SE) ([2]; listed as cis-platinum) | Pixel of Sum of Fluorescence Intensities (mean ± SE) ([3]; n = 10) | Pixel of Sum of Fluorescence Intensities (mean ± SE) ([3]; n = 10, listed as vincristine) | inhibition at 5 µM ([3]; Danio rerio, 48 h, n = 10, read-out: Inhibition Effect) |
| --- | --- | --- | --- | --- | --- | --- | --- | --- | --- |
| N.N.[Cl][Pt][Cl] [Cis-platinum] | 36% | 237655 ± 12361 pixels | 237,655 pixels | 32% | 137287 ± 7835 pixels | 137,287 pixels |  |  |  |
| CC[C@]1(O)C[C@H]2CN(CCc3c([nH]c4ccccc34)[C@@](C(=O)OC)(c3cc4c(cc3OC)N(C=O)[C@H]3[C@@](O)(C(=O)OC)[C@H](OC(C)=O)[C@]5(CC)C=CCN6CC[C@]43[C@@H]65)C2)C1 [Vincristine, Vincristine sulfate] |  |  |  |  |  |  | 153919 ± 13691 pixels | 153,919 pixels | 33% |

— patent US11633444B2, “Sporoderm-removed Ganoderma lucidum spore powder, granule and preparation method thereof” (ZHEJIANG SHOUXIANGU PHARMACEUTICAL COMPANY, LTD, priority 2017, dated 2023)
